# In US20250313563A1, “GLYCOGEN SYNTHASE KINASE 3 INHIBITORS AND USES THEREOF” (The Broad Institute, Inc., priority 2022, published 2025):
# Read-outs that look alike come from different tables or passages of the source.
# Assays:
# [1] = biological target: GSK3α (GST-full length GSK3α) (Homo sapiens (Human), UniProt P49840); experiment: GSK3α TR-FRET kinase assay; format: biochemical
# Outline: (§1)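 Compound was preincubated 30 min with 1 nM GST-GSK3 enzyme. Reaction ran 100 min at ambient temperature in Tris pH 7.5/MgCl2 with 200 nM biotinylated pS645-glycogen synthase 631-650 peptide and ATP (4 μM GSK3α, 2 μM GSK3b, or 1 mM). The EDTA-stopped reaction was read by TR-FRET (Tb-anti-pSer641/streptavidin-d2), and IC50s were fitted.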
# [2] = biological target: GSK3b (GST-full length GSK3b) (Homo sapiens (Human), UniProt P49841); experiment: GSK3b TR-FRET kinase assay; format: biochemical
# Chain of GSK3b (GST-full length GSK3b) (P49841 whole entry): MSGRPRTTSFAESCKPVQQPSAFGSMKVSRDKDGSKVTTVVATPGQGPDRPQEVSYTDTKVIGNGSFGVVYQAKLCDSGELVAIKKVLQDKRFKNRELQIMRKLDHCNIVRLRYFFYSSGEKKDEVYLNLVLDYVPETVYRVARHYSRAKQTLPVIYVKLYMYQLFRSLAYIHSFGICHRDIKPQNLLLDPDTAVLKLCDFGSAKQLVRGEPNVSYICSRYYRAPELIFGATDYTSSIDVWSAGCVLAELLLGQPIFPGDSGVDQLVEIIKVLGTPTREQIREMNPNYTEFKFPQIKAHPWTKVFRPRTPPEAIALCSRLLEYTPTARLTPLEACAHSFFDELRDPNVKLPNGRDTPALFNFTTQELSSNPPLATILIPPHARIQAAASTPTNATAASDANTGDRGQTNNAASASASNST
# Outline: as §1
# [3] = 1 nM GSK3α, 4 μM ATP, 30 minute preincubation, Table 16, read-out: GSK3-A TR-FRET BIOCHEMICAL (TR-FRET)
# [4] = 1 nM GSK3b, 2 μM ATP, 30 minute preincubation, Table 16, read-out: GSK3-B TR-FRET BIOCHEMICAL (TR-FRET)
# [5] = 1 nM GSK3α, 4 μM ATP, 30 minute preincubation, Table 16, read-out: GSK3-A TR-FRET BIOCHEMICAL (TR-FRET), IC50
# [6] = 1 nM GSK3b, 2 μM ATP, 30 minute preincubation, Table 16, read-out: GSK3-B TR-FRET BIOCHEMICAL (TR-FRET), IC50
# [7] = 1 nM GSK3α, 4 μM ATP, 30 minute preincubation, read-out: GSK3-A TR-FRET BIOCHEMICAL (TR-FRET), IC50
# [8] = 1 nM GSK3b, 2 μM ATP, 30 minute preincubation, read-out: GSK3-B TR-FRET BIOCHEMICAL (TR-FRET), IC50
# [9] = read-out: GSK3-A (TR-FRET 1 mM ATP), GMean, IC50, 1 mM ATP, geometric mean
# [10] = read-out: GSK3-B (TR-FRET 1 mM ATP), GMean, IC50, 1 mM ATP, geometric mean
# Chain of GSK3α (GST-full length GSK3α) (P49840 whole entry): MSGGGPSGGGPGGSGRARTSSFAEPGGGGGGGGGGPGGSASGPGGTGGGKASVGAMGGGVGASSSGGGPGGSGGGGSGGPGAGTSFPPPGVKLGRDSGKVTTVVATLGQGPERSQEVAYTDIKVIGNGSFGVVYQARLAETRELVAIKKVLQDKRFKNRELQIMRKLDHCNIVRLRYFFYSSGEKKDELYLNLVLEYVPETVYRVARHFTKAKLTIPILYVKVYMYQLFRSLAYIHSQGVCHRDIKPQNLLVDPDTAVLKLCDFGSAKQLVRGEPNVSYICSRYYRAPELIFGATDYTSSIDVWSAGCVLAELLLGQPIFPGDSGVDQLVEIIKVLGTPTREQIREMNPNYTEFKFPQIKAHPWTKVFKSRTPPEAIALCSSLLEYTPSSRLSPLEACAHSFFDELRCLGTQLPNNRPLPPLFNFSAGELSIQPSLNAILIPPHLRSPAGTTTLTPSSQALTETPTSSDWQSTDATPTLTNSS
"IC50 [1, 3]","IC50 [2, 4]","IC50 [1, 5]","IC50 [2, 6]",SMILES,other results
100 to 1000 nM,100 to 1000 nM,,,C[C@@H]1C[C@]2(CCN1S(=O)(=O)c1ccn(C)n1)C1=C(CC(C)(C)CC1=O)Nc1n[nH]cc12 [Compound 917160],
≤ 100 nM,≤ 100 nM,,,C[C@@H]1C[C@@]2(CCN1S(=O)(=O)c1ccn(C)n1)C1=C(CC(C)(C)CC1=O)Nc1n[nH]cc12 [Compound 917161],
,,> 5000 nM,> 5000 nM,CC[C@]1(c2cccc(N3CCCC[C@H]3C)c2)C2=C(CC(C)(C)CC2=O)Nc2n[nH]cc21 [Compound 917210],
100 to 1000 nM,100 to 1000 nM,,,COC(=O)C1CCC2(CC1)C1=C(CC(C)(C)CC1=O)Nc1n[nH]cc12 (stereo not shown) [Compound 918270],
,,≤ 100 nM,≤ 100 nM,CCC1(c2cccc(S(=O)(=O)C3CCCCC3)c2)C2=C(CC(C)(C)CC2=O)Nc2n[nH]cc21 (stereo not shown) [Compound 918273],
≤ 100 nM,≤ 100 nM,,,CC1(C)CC(=O)C2=C(C1)Nc1n[nH]cc1C21CN(S(=O)(=O)C2CCCCC2)C1 [Compound 918275],
≤ 100 nM,≤ 100 nM,,,COc1cccc(S(=O)(=O)N2CC3(C2)C2=C(CC(C)(C)CC2=O)Nc2n[nH]cc23)c1 [Compound 918276],
≤ 100 nM,100 to 1000 nM,,,COC(=O)C1CCC2(CC1)C1=C(CC(C)(C)CC1=O)Nc1n[nH]cc12 (stereo not shown) [Compound 918277],
≤ 100 nM,≤ 100 nM,,,CC1(C)CC(=O)C2=C(C1)Nc1n[nH]cc1C21CN(S(=O)(=O)c2cccc(F)c2)C1 [Compound 918278],
≤ 100 nM,≤ 100 nM,,,CC1(C)CC2=C(C(=O)[C@H]1F)[C@]1(CC[C@H](C(F)(F)F)CC1)c1c[nH]nc1N2 [Compound 918282],
≤ 100 nM,≤ 100 nM,,,CC1(C)CC2=C(C(=O)[C@@H]1F)[C@]1(CC[C@H](C(F)(F)F)CC1)c1c[nH]nc1N2 [Compound 918283],
≤ 100 nM,≤ 100 nM,,,CC1(C)CC(=O)C2=C(Nc3n[nH]cc3[C@]23CC[C@@H](C(F)(F)F)CC3)[C@@H]1F [Compound 918284],
≤ 100 nM,100 to 1000 nM,,,CC1(C)CC(=O)C2=C(Nc3n[nH]cc3[C@]23CC[C@@H](C(F)(F)F)CC3)[C@H]1F [Compound 918285],"IC50 ([1]; GSK3-A (TR-FRET 1 mM ATP), GMean, IC50, 1 mM ATP, geometric mean): 1000 to 5000 nM; IC50 ([2]; GSK3-B (TR-FRET 1 mM ATP), GMean, IC50, 1 mM ATP, geometric mean): > 5000 nM"
100 to 1000 nM,100 to 1000 nM,,,C[C@@H]1C[C@]2(CCN1S(C)(=O)=O)C1=C(CC(C)(C)CC1=O)Nc1n[nH]cc12 [Compound 918315],
≤ 100 nM,100 to 1000 nM,,,C[C@@H]1C[C@@]2(CCN1S(C)(=O)=O)C1=C(CC(C)(C)CC1=O)Nc1n[nH]cc12 [Compound 918316],
,,> 5000 nM,> 5000 nM,CC[C@]1(c2cccc(N3CCC[C@H]3C)c2)C2=C(CC(C)(C)CC2=O)Nc2n[nH]cc21 [Compound 918322],
,,1000 to 5000 nM,1000 to 5000 nM,CC1(C)CC(=O)C2=C(C1)Nc1n[nH]cc1[C@]21CCOC(C)(C)C1 [Compound 924298],
100 to 1000 nM,100 to 1000 nM,,,CC1(C)CC(=O)C2=C(C1)Nc1n[nH]cc1[C@@]21CCOC(C)(C)C1 [Compound 924299],
100 to 1000 nM,100 to 1000 nM,,,C[C@H]1C[C@]2(CCO1)C1=C(CC(C)(C)CC1=O)Nc1n[nH]cc12 [Compound 924307],
100 to 1000 nM,100 to 1000 nM,,,C[C@@H]1C[C@@]2(CCO1)C1=C(CC(C)(C)CC1=O)Nc1n[nH]cc12 [Compound 924308],
,,1000 to 5000 nM,> 5000 nM,C[C@H]1COCC[C@@]12C1=C(CC(C)(C)CC1=O)Nc1n[nH]cc12 [Compound 924309],

# Continued, compound first:
SMILES,"IC50 [1, 3]","IC50 [2, 4]","IC50 [1, 5]","IC50 [2, 6]",other results
CCC1(c2cccc(Oc3cncnc3)c2)C2=C(CC(C)(C)CC2=O)Nc2n[nH]cc21 (stereo not shown) [Compound 917212],,,≤ 100 nM,100 to 1000 nM,
CC1(C)CC(=O)C2=C(C1)Nc1n[nH]cc1C21Cc2ccccc21 (stereo not shown) [Compound 917226],,,100 to 1000 nM,100 to 1000 nM,
CC1(C)CC(=O)C2=C(C1)Nc1n[nH]cc1C21COC2(CN(C(=O)c3ccccc3)C2)C1 (stereo not shown) [Compound 917231],,,,,"IC50 [1, 7]: ≤ 100 nM; IC50 [2, 8]: ≤ 100 nM"
CC1(C)CC(=O)C2=C(C1)Nc1n[nH]cc1C21COC2(CN(C(=O)C3CCCC3)C2)C1 (stereo not shown) [Compound 917232],,,,,"IC50 [1, 7]: ≤ 100 nM; IC50 [2, 8]: ≤ 100 nM"
CC[C@@]1(c2cccc(C(F)(F)F)c2)C2=C(CCN(C)C2=O)Nc2n[nH]cc21 [Compound 917282],,,,,"IC50 [1, 7]: ≤ 100 nM; IC50 [2, 8]: 100 to 1000 nM"
CC[C@]1(c2cccc(C(F)(F)F)c2)C2=C(CCN(C)C2=O)Nc2n[nH]cc21 [Compound 917283],,,,,"IC50 [1, 7]: > 5000 nM; IC50 [2, 8]: > 5000 nM"
CCC1(c2cccc(C(F)(F)F)c2)C2=C(CC(c3ccccc3)NC2=O)Nc2n[nH]cc21 (stereo not shown) [Compound 917284],,,,,"IC50 [1, 7]: 100 to 1000 nM; IC50 [2, 8]: 1000 to 5000 nM"
CCC1(c2cccc(-c3ccnc(C)c3)c2)C2=C(CC(C)(C)CC2=O)Nc2n[nH]c(C(F)(F)F)c21 (stereo not shown) [Compound 917289],,,100 to 1000 nM,1000 to 5000 nM,"IC50 [1, 9]: > 5000 nM; IC50 [2, 10]: > 5000 nM"
CCC1(c2cccc(-c3ccncc3)c2)C2=C(CC(C)(C)CC2=O)Nc2n[nH]c(C(F)(F)F)c21 (stereo not shown) [Compound 917292],,,100 to 1000 nM,100 to 1000 nM,"IC50 [1, 9]: > 5000 nM; IC50 [2, 10]: > 5000 nM"
CCC1(c2cccc(C(F)(F)F)c2)C2=C(CN(C)C2=O)Nc2n[nH]cc21 (stereo not shown) [Compound 917294],100 to 1000 nM,1000 to 5000 nM,,,
CCC1(c2cccc(C(F)(F)F)c2)C2=C(Nc3n[nH]cc31)C(C)NC2=O (stereo not shown) [Compound 917295],100 to 1000 nM,1000 to 5000 nM,,,
CC[C@@]1(c2cccc(C(F)(F)F)c2)C2=C(Nc3n[nH]cc31)C(C)(C)N(C)C2=O [Compound 918251],> 5000 nM,> 5000 nM,,,
CCC1(c2cccc(S(=O)(=O)CCOC)c2)C2=C(CC(C)(C)CC2=O)Nc2n[nH]cc21 (stereo not shown) [Compound 918271],,,≤ 100 nM,≤ 100 nM,
CCC1(c2cccc(N(C)c3ccc(C)nc3)c2)C2=C(CC(C)(C)CC2=O)Nc2n[nH]cc21 (stereo not shown) [Compound 918272],,,100 to 1000 nM,100 to 1000 nM,
CCC1(c2cccc(N(C)c3cccc(F)n3)c2)C2=C(CC(C)(C)CC2=O)Nc2n[nH]cc21 (stereo not shown) [Compound 918274],,,≤ 100 nM,100 to 1000 nM,
CCC1(c2cccc(N3CCOc4ncccc43)c2)C2=C(CC(C)(C)CC2=O)Nc2n[nH]cc21 (stereo not shown) [Compound 918279],,,≤ 100 nM,≤ 100 nM,
CCC1(c2cccc(N3CCOc4ccccc43)c2)C2=C(CC(C)(C)CC2=O)Nc2n[nH]cc21 (stereo not shown) [Compound 918280],,,≤ 100 nM,≤ 100 nM,
CCC1(c2cccc(-c3ccnc(C)c3F)c2)C2=C(CC(C)(C)CC2=O)Nc2n[nH]cc21 (stereo not shown) [Compound 918281],,,≤ 100 nM,100 to 1000 nM,
CCC1(c2cccc(N3CCCC3C)c2)C2=C(CC(C)(C)CC2=O)Nc2n[nH]cc21 (stereo not shown) [Compound 918321],,,≤ 100 nM,≤ 100 nM,
CCC1(c2cccc(N3CC(C)C(C)C3)c2)C2=C(CC(C)(C)CC2=O)Nc2n[nH]cc21 (stereo not shown) [Compound 918326],,,100 to 1000 nM,100 to 1000 nM,
CCC1(c2cccc(N3CC(C)C(C)C3)c2)C2=C(CC(C)(C)CC2=O)Nc2n[nH]cc21 (stereo not shown) [Compound 918327],,,1000 to 5000 nM,> 5000 nM,
CCN(c1cccc(C2(CC)C3=C(CC(C)(C)CC3=O)Nc3n[nH]cc32)c1)c1ncccn1 (stereo not shown) [Compound 919840],,,≤ 100 nM,≤ 100 nM,
CC1(C)CC(=O)C2=C(C1)Nc1n[nH]cc1[C@@]21CCOC2(CCOCC2)C1 [Compound 924306],,,,,"IC50 [1, 7]: 100 to 1000 nM; IC50 [2, 8]: 100 to 1000 nM"
